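Five compound concentrations were applied to cells in 96-well plates for 48 hours; endpoints were derived by simple linear interpolation of the resulting dose-response curve. The concentration for 50% growth inhibition is given as GI50. Definition used: TGI = concentration required for complete inhibition of growth.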
Tests used:
Test in all cases: inhibition of tumour cell growth, NCI panel, 48 h
BT-549 breast = tested on: BT-549 breast
ACHN renal = tested on: ACHN renal
786-0 renal = tested on: 786-0 renal
K-562 leukemia = tested on: K-562 leukemia
SF-268 CNS = tested on: SF-268 CNS
CCRF-CEM leukemia = tested on: CCRF-CEM leukemia
MDA-MB-231 breast = tested on: MDA-MB-231 breast
SK-MEL-5 melanoma = tested on: SK-MEL-5 melanoma
PC-3 prostate = tested on: PC-3 prostate
RXF 393 renal = tested on: RXF 393 renal

Structure (SMILES)	GI50 (BT-549 breast)	TGI (BT-549 breast)	GI50 (ACHN renal)	TGI (ACHN renal)	GI50 (786-0 renal)	TGI (786-0 renal)	GI50 (K-562 leukemia)	TGI (K-562 leukemia)	GI50 (SF-268 CNS)	TGI (SF-268 CNS)	GI50 (CCRF-CEM leukemia)	TGI (CCRF-CEM leukemia)	GI50 (MDA-MB-231 breast)	TGI (MDA-MB-231 breast)	GI50 (SK-MEL-5 melanoma)	TGI (SK-MEL-5 melanoma)	GI50 (PC-3 prostate)	TGI (PC-3 prostate)	GI50 (RXF 393 renal)	TGI (RXF 393 renal)
Cc1cccc2nc3cccc(C(=O)NCCNCCNCCNC(=O)c4cccc5nc6cccc(C)c6nc45)c3nc12	1.73 µM	6.25 µM	< 0.01 µM	10.9 µM	< 0.0333 µM	7.74 µM	< 0.01 µM	9.37 µM	< 0.01 µM	1.7 µM	0.0859 µM	2.86 µM	0.161 µM	3.93 µM	< 0.0131 µM	0.851 µM	< 0.0164 µM	4.63 µM	< 0.0149 µM	0.228 µM
COc1ccc2c(Cc3c4ccccc4cc4ccccc34)cncc2c1O	–	53.1 µM	–	27.3 µM	–	23.4 µM	–	12.8 µM	–	> 100 µM	–	3.04 µM	–	8.95 µM	–	3.05 µM	–	> 59.9 µM	–	> 21.6 µM
c1ccc(Nc2nc(-c3ccccn3)cs2)nc1	0.713 µM	> 26 µM	0.341 µM	> 100 µM	0.344 µM	> 38.2 µM	0.413 µM	> 57.2 µM	0.346 µM	> 45.5 µM	0.259 µM	> 29.6 µM	0.934 µM	> 100 µM	0.355 µM	6.17 µM	0.568 µM	> 89.9 µM	1.98 µM	> 100 µM
C=C1CCC2C3(C)COC(c4c(OC)cccc4OC)OC3CCC2(C)C1C/C=C1/C(=O)OCC1O (stereo not given)	2.25 µM	5.64 µM	2.38 µM	5.85 µM	3.34 µM	8.88 µM	1.41 µM	6.28 µM	3.7 µM	12.4 µM	1.86 µM	5.75 µM	7.57 µM	26.4 µM	2.83 µM	8.57 µM	2.66 µM	11.7 µM	1.92 µM	3.55 µM
Nc1nc2c(nnn2C2OC(CO)C(O)C2O)c(=O)[nH]1 (stereo not given)	2.41 µM	> 26.3 µM	0.298 µM	> 100 µM	0.941 µM	> 100 µM	2.06 µM	> 100 µM	3.15 µM	> 100 µM	0.676 µM	> 100 µM	4.48 µM	> 100 µM	2.44 µM	9.24 µM	0.617 µM	> 44 µM	1.4 µM	13.6 µM
COc1cc2nc(-c3ccc(Cl)cc3)cc(OCCCN3CCCC3)c2cc1OC	1.77 µM	7.37 µM	1.93 µM	8.39 µM	2.78 µM	12.1 µM	1.06 µM	4.68 µM	2.53 µM	15.5 µM	2.14 µM	7.09 µM	0.907 µM	4.08 µM	0.961 µM	2.16 µM	1.76 µM	10.3 µM	1.17 µM	3.78 µM
